In patent US7507730B2, “Substituted pyrazolo[1,5-a]pyrimidines as potassium channel activators” (Bristol-Myers Squibb Company, priority 2005, dated 2009):
Where two headings read alike, the source gives them in different places.

Target: Kv1.5 (Homo sapiens, UniProt P22460)
Assay: Kv1.5 inhibition assay (IKur inhibitor assay per cited references)
Type: cell-based
Conditions: for Kv1.5% inhibition / inhibition at 0.3 µM: at 0.3 μM
Text: Assays to determine the degree of activity of a compound as an IKur inhibitor are well known in the art and are described in references such as J. Gen. Physiol. Apr.; 101 (4):513-43, and Br. J. Pharmacol. 1995 May; 115(2):267-74.

Chain of Kv1.5 (P22460 whole entry): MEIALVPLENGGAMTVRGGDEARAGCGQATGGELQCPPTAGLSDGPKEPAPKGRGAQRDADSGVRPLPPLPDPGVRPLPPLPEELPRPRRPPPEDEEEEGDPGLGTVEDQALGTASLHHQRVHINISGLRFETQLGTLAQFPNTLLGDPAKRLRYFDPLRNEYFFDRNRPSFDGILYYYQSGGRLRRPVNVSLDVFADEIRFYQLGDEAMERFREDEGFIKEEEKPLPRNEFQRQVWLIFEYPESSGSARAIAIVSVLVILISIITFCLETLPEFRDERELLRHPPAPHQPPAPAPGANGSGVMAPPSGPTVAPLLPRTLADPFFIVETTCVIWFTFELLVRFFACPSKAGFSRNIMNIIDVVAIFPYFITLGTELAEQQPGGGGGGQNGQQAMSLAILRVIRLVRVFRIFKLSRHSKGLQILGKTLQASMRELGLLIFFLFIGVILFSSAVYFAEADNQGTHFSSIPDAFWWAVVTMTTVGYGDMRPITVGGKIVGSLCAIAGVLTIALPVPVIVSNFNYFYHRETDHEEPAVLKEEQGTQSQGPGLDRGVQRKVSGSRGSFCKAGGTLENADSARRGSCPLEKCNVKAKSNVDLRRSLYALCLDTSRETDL

SMILES	Kv1.5% inhibition [%]	inhibition at 0.3 µM [%]	also measured
CC1=C(S(=O)(=O)c2ccccn2)C(c2ccc(Cl)cc2)n2nc(C(F)(F)F)cc2N1 (single isomer, unassigned) [Example 47 Isomer 1, 7-(4-Chlorophenyl)-5-methyl-6-(pyridin-2-ylsulfonyl)-2-(trifluoromethyl)-4,7-dihydropyrazolo[1,5-a]pyrimidine]			IC50 (read-out: Kv1.5 IC50): 0.197 µM
COc1cccc(S(=O)(=O)C2=C(C)Nc3cc(C(F)(F)F)nn3C2c2ccc(Cl)cc2)c1 (single isomer, unassigned) [Example 40 Isomer 2, 7-(4-Chlorophenyl)-6-(3-methoxyphenylsulfonyl)-5-methyl-2-(trifluoromethyl)-4,7-dihydropyrazolo[1,5-a]pyrimidine]	74.4		
CC1=C(S(=O)(=O)c2ccc(Cl)cc2)C(c2ccc(Cl)c(Cl)c2)n2nccc2N1 (single isomer, unassigned) [Example 2 Isomer 1, 6-(4-Chlorophenylsulfonyl)-7-(3,4-dichlorophenyl)-5-methyl-4,7-dihydropyrazolo[1,5-a]pyrimidine]			IC50 (read-out: Kv1.5 IC50): 0.092 µM
CC1=C(S(=O)(=O)c2ccccc2)C(c2ccc(Cl)c(F)c2)n2nc(C(F)(F)F)cc2N1 (single isomer, unassigned) [Example 33 Isomer 1, 7-(4-Chloro-3-fluorophenyl)-5-methyl-6-(phenylsulfonyl)-2-(trifluoromethyl)-4,7-dihydropyrazolo[1,5-a]pyrimidine]		75.5	
CC1=C(S(=O)(=O)c2ccccn2)C(c2ccc(Cl)c(Cl)c2)n2nc(C)cc2N1 (single isomer, unassigned) [Example 11 Isomer 1, 7-(3,4-Dichlorophenyl)-2,5-dimethyl-6-(pyridin-2-ylsulfonyl)-4,7-dihydropyrazolo[1,5-a]pyrimidine]	72.5		
COc1ccc(S(=O)(=O)C2=C(C)Nc3cc(C)nn3C2c2cccc(Cl)c2)cc1 (single isomer, unassigned) [Example 17 Isomer 1, 7-(3-Chlorophenyl)-6-(4-methoxyphenylsulfonyl)-2,5-dimethyl-4,7-dihydropyrazolo[1,5-a]pyrimidine]			IC50 (read-out: Kv1.5 IC50): 0.256 µM
CC1=C(S(=O)(=O)c2ccc(Cl)cc2)C(c2ccc(Cl)cc2)n2nc(C(F)(F)F)cc2N1 (single isomer, unassigned) [Example 31 Isomer 2, 7-(4-Chlorophenyl)-6-(4-chlorophenylsulfonyl)-5-methyl-2-(trifluoromethyl)-4,7-dihydropyrazolo[1,5-a]pyrimidine]	81.9		
CC1=C(S(=O)(=O)c2ccc(Cl)cc2)C(c2ccccc2)n2nc(C(F)(F)F)cc2N1 (single isomer, unassigned) [Example 35 Isomer 2, 6-(4-Chlorophenylsulfonyl)-5-methyl-7-phenyl-2-(trifluoromethyl)-4,7-dihydropyrazolo[1,5-a]pyrimidine]			IC50 (read-out: Kv1.5 IC50): 0.252 µM
COc1cccc(S(=O)(=O)C2=C(C)Nc3cc(C(F)(F)F)nn3C2c2ccc(C)c(F)c2)c1 (single isomer, unassigned) [Example 41 Isomer 2, 7-(3-Fluoro-4-methylphenyl)-6-(3-methoxyphenylsulfonyl)-5-methyl-2-(trifluoromethyl)-4,7-dihydropyrazolo[1,5-a]pyrimidine]	85.8		
CC1=C(S(=O)(=O)c2ccc(C)cc2)C(c2ccc(Cl)cc2)n2nc(C(F)(F)F)cc2N1 (single isomer, unassigned) [Example 28 Isomer 1, 7-(4-Chlorophenyl)-5-methyl-6-tosyl-2-(trifluoromethyl)-4,7-dihydropyrazolo[1,5-a]pyrimidine]		77.4	
CC1=C(S(=O)(=O)c2ccc(Cl)cc2)C(C2CCCCC2)n2nc(C(F)(F)F)cc2N1 (single isomer, unassigned) [Example 44 Isomer 1, 6-(4-Chlorophenylsulfonyl)-7-cyclohexyl-5-methyl-2-(trifluoromethyl)-4,7-dihydropyrazolo[1,5-a]pyrimidine]			IC50 (read-out: Kv1.5 IC50): 0.202 µM
COc1ccc(S(=O)(=O)N(C)C(=O)C2=C(C)Nc3cc(C)nn3C2c2ccc(Cl)c(Cl)c2)cc1 (racemic) [Example 77, 7-(3,4-Dichlorophenyl)-N-(4-methoxyphenylsulfonyl)-N,2,5-trimethyl-4,7-dihydropyrazolo[1,5-a]pyrimidine-6-carboxamide]			IC50 (given as % inhibition, value given as a concentration in μM, read-out: Kv1.5% inhibition): 0.172 µM
COc1ccc(S(=O)(=O)C2=C(C)Nc3cc(C)nn3C2c2nc3ccccc3n2C)cc1 (single isomer, unassigned) [Example 23 Isomer 2, 6-(4-Methoxyphenylsulfonyl)-2,5-dimethyl-7-(1-methyl-1H-benzo[d]imidazol-2-yl)-4,7-dihydropyrazolo[1,5-a]pyrimidine]	16.6		
COc1ccc(S(=O)(=O)C2=C(C)Nc3cc(C)nn3C2c2ccc(Cl)cc2)cc1 (single isomer, unassigned) [Example 19 Isomer 1, 7-(4-Chlorophenyl)-6-(4-methoxyphenylsulfonyl)-2,5-dimethyl-4,7-dihydropyrazolo[1,5-a]pyrimidine]			IC50 (read-out: Kv1.5 IC50): 0.055 µM
CCCCS(=O)(=O)C1=C(C)Nc2cc(C)nn2C1c1ccc(Cl)c(Cl)c1 (single isomer, unassigned) [Example 18 Isomer 2, 6-(Butylsulfonyl)-7-(3,4-dichlorophenyl)-2,5-dimethyl-4,7-dihydropyrazolo[1,5-a]pyrimidine]	28.8		
COc1ccc(S(=O)(=O)C2=C(C)Nc3cc(C)nn3C2c2ccc(C)c(F)c2)cc1 (single isomer, unassigned) [Example 24 Isomer 2, 7-(3-Fluoro-4-methylphenyl)-6-(4-methoxyphenylsulfonyl)-2,5-dimethyl-4,7-dihydropyrazolo[1,5-a]pyrimidine]			IC50 (read-out: Kv1.5 IC50): 0.322 µM
CC1=C(S(=O)(=O)C2CCCCC2)C(c2ccc(Cl)c(Cl)c2)n2nc(C)cc2N1 (single isomer, unassigned) [Example 10 Isomer 2, 6-(Cyclohexylsulfonyl)-7-(3,4-dichlorophenyl)-2,5-dimethyl-4,7-dihydropyrazolo[1,5-a]pyrimidine]		59.3	
COc1cccc(S(=O)(=O)C2=C(C)Nc3cc(C(F)(F)F)nn3C2c2ccc(Cl)cc2)c1 (single isomer, unassigned) [Example 40 Isomer 1, 7-(4-Chlorophenyl)-6-(3-methoxyphenylsulfonyl)-5-methyl-2-(trifluoromethyl)-4,7-dihydropyrazolo[1,5-a]pyrimidine]		94.4	

The next lines start with results.

Kv1.5% inhibition [%]	inhibition at 0.3 µM [%]	SMILES	also measured
7		CC1=C(C(=O)N2CCCCS2(=O)=O)C(c2ccc(Cl)c(Cl)c2)n2nc(C)cc2N1 (single isomer, unassigned) [Example 84 Isomer 2]	
	15.1	CC1=C(S(=O)(=O)c2ccc(Cl)cc2)C(c2cncnc2)n2nc(C(F)(F)F)cc2N1 (single isomer, unassigned) [Example 50 Isomer 1, 6-(4-Chlorophenylsulfonyl)-5-methyl-7-(pyrimidin-5-yl)-2-(trifluoromethyl)-4,7-dihydropyrazolo[1,5-a]pyrimidine]	
	40	CC1=C(C(=O)N2CCN(C)S2(=O)=O)C(c2ccc(Cl)c(Cl)c2)n2nc(C)cc2N1 (racemic) [Example 83]	
	42.9	CC1=C(S(=O)(=O)NC(C)(C)C)C(c2ccc(Cl)c(Cl)c2)n2nc(C(F)(F)F)cc2N1 (single isomer, unassigned) [Example 58 Isomer 1, N-tert-Butyl-7-(3,4-dichlorophenyl)-5-methyl-2-(trifluoromethyl)-4,7-dihydropyrazolo[1,5-a]pyrimidine-6-sulfonamide]	
	81	CC1=C(S(=O)(=O)N2CCCCC2)C(c2ccc(Cl)c(Cl)c2)n2nc(C(F)(F)F)cc2N1 (single isomer, unassigned) [Example 65 Isomer 1, 7-(3,4-Dichlorophenyl)-5-methyl-6-(piperidin-1-ylsulfonyl)-2-(trifluoromethyl)-4,7-dihydropyrazolo[1,5-a]pyrimidine]	
	91	CC1=C(C(=O)N(C)S(=O)(=O)c2c(C)noc2C)C(c2ccc(Cl)c(Cl)c2)n2nc(C(F)(F)F)cc2N1 (single isomer, unassigned) [Example 95 Isomer 1, 7-(3,4-Dichlorophenyl)-N-(3,5-dimethylisoxazol-4-ylsulfonyl)-N,5-dimethyl-2-(trifluoromethyl)-4,7-dihydropyrazolo[1,5-a]pyrimidine-6-carboxamide]	
25		CC1=C(C(=O)N(C)S(=O)(=O)c2ccccc2)C(c2ccc(Cl)c(Cl)c2)n2nc(C)cc2N1 (single isomer, unassigned) [Example 79 Isomer 1, 7-(3,4-Dichlorophenyl)-N,2,5-trimethyl-N-(phenylsulfonyl)-4,7-dihydropyrazolo[1,5-a]pyrimidine-6-carboxamide]	
37.5		CC1=C(S(=O)(=O)NCc2ccccc2)C(c2ccc(Cl)c(Cl)c2)n2nc(C(F)(F)F)cc2N1 (single isomer, unassigned) [Example 56 Isomer 2, N-Benzyl-7-(3,4-dichlorophenyl)-5-methyl-2-(trifluoromethyl)-4,7-dihydropyrazolo[1,5-a]pyrimidine-6-sulfonamide]	
	22.9	CC1=C(S(=O)(=O)NCc2ccccc2)C(c2ccc(Cl)cc2)n2nc(C)cc2N1 (single isomer, unassigned) [Example 55 Isomer 1, N-Benzyl-7-(4-chlorophenyl)-2,5-dimethyl-4,7-dihydropyrazolo[1,5-a]pyrimidine-6-sulfonamide]	
	11	CCCCS(=O)(=O)NC(=O)C1=C(C)Nc2cc(C(F)(F)F)nn2C1c1ccc(Cl)c(Cl)c1 (racemic) [Example 85, N-(Butylsulfonyl)-7-(3,4-dichlorophenyl)-5-methyl-2-(trifluoromethyl)-4,7-dihydropyrazolo[1,5-a]pyrimidine-6-carboxamide]	
	34.1	CC1=C(S(=O)(=O)NC(C)(C)C)C(c2ccc(Cl)cc2)n2nc(C(F)(F)F)cc2N1 (racemic) [Example 57, N-tert-Butyl-7-(4-chlorophenyl)-5-methyl-2-(trifluoromethyl)-4,7-dihydropyrazolo[1,5-a]pyrimidine-6-sulfonamide]	
